Laboratory results from ChEMBL document CHEMBL3046394, “Conyza canadensis (L.) Cronquist response to pre-plant application of residual herbicides in cotton (Gossypium hirsutum L.)” (Crop Prot, 2009).

Key:
Gossypium hirsutum = experiment: Toxicity in Gossypium hirsutum (cotton) assessed as formation of injury to cotton; type: organism-based; conditions: in vivo
Erigeron canadensis [1] = experiment: Herbicidal activity against glyphosate-resistant Conyza canadensis (horseweed) assessed as residual control at 47 g a.i./ha treated during autumn and spring measured 8 weeks after treatment; type: functional
Erigeron canadensis [2] = experiment: Herbicidal activity against glyphosate-resistant Conyza canadensis (horseweed) assessed as residual control at 47 g a.i./ha treated during autumn and spring measured 6 weeks after treatment; type: functional
Erigeron canadensis [3] = experiment: Herbicidal activity against glyphosate-resistant Conyza canadensis (horseweed) assessed as residual control at 47 g a.i./ha treated during autumn and spring measured 4 weeks after treatment; type: functional
Erigeron canadensis [4] = experiment: Herbicidal activity against glyphosate-resistant Conyza canadensis (horseweed) assessed as residual control at 1680 g a.i./ha treated during autumn and spring measured 8 weeks after treatment; type: functional
Erigeron canadensis [5] = experiment: Herbicidal activity against glyphosate-resistant Conyza canadensis (horseweed) assessed as residual control at 1680 g a.i./ha treated during autumn and spring measured 6 weeks after treatment; type: functional
Erigeron canadensis [6] = experiment: Herbicidal activity against glyphosate-resistant Conyza canadensis (horseweed) assessed as residual control at 1680 g a.i./ha treated during autumn and spring measured 4 weeks after treatment; type: functional
[7] = Half life of the compound under anaerobic condition
[8] = Half life of the compound
[9] = Half life of the compound under aerobic condition
Erigeron canadensis [10] = experiment: Herbicidal activity against glyphosate-resistant Conyza canadensis (horseweed) assessed as residual control at 1120 g a.i./ha treated during autumn and spring measured 8 weeks after treatment; type: functional
Erigeron canadensis [11] = experiment: Herbicidal activity against glyphosate-resistant Conyza canadensis (horseweed) assessed as residual control at 1120 g a.i./ha treated during autumn and spring measured 6 weeks after treatment; type: functional
Erigeron canadensis [12] = experiment: Herbicidal activity against glyphosate-resistant Conyza canadensis (horseweed) assessed as residual control at 1120 g a.i./ha treated during autumn and spring measured 4 weeks after treatment; type: functional
Erigeron canadensis [13] = experiment: Herbicidal activity against glyphosate-resistant Conyza canadensis (horseweed) assessed as residual control at 1400 g a.i./ha treated during autumn and spring measured 8 weeks after treatment; type: functional
Erigeron canadensis [14] = experiment: Herbicidal activity against glyphosate-resistant Conyza canadensis (horseweed) assessed as residual control at 1400 g a.i./ha treated during autumn and spring measured 6 weeks after treatment; type: functional
Erigeron canadensis [15] = experiment: Herbicidal activity against glyphosate-resistant Conyza canadensis (horseweed) assessed as residual control at 1400 g a.i./ha treated during autumn and spring measured 4 weeks after treatment; type: functional
Erigeron canadensis [16] = experiment: Herbicidal activity against glyphosate-resistant Conyza canadensis (horseweed) assessed as residual control at 420 g a.i./ha treated during autumn and spring measured 4 weeks after treatment; type: functional
Erigeron canadensis [17] = experiment: Herbicidal activity against glyphosate-resistant Conyza canadensis (horseweed) assessed as residual control at 420 g a.i./ha treated during autumn and spring measured 8 weeks after treatment; type: functional
Erigeron canadensis [18] = experiment: Herbicidal activity against glyphosate-resistant Conyza canadensis (horseweed) assessed as residual control at 420 g a.i./ha treated during autumn and spring measured 6 weeks after treatment; type: functional
Erigeron canadensis [19] = experiment: Herbicidal activity against glyphosate-resistant Conyza canadensis (horseweed) assessed as residual control at 71 g a.i./ha treated during autumn and spring measured 8 weeks after treatment; type: functional
Erigeron canadensis [20] = experiment: Herbicidal activity against glyphosate-resistant Conyza canadensis (horseweed) assessed as residual control at 71 g a.i./ha treated during autumn and spring measured 6 weeks after treatment; type: functional
Erigeron canadensis [21] = experiment: Herbicidal activity against glyphosate-resistant Conyza canadensis (horseweed) assessed as residual control at 71 g a.i./ha treated during autumn and spring measured 4 weeks after treatment; type: functional

COc1cc(OC)nc(Sc2cccc(Cl)c2C(=O)O)n1 [PYRITHIOBAC]
Activity (Gossypium hirsutum): Non-toxic | Activity (Erigeron canadensis [1]): 37% | Activity (Erigeron canadensis [2]): 72% | Activity (Erigeron canadensis [3]): 60%

CNc1cnn(-c2cccc(C(F)(F)F)c2)c(=O)c1Cl [NORFLURAZONE]
Activity (Gossypium hirsutum): Non-toxic | Activity (Erigeron canadensis [4]): 100% | Activity (Erigeron canadensis [5]): 100% | Activity (Erigeron canadensis [6]): 100%

COc1c(Cl)ccc(Cl)c1C(=O)O [3,6 DICHLOROMETHOXYBENZOIC ACID]
half-life [7]: 58 days | half-life [8]: 7 days | half-life [9]: 31 days

CN(C)C(=O)Nc1ccc(Cl)c(Cl)c1 [DCMU]
Activity (Erigeron canadensis [10]): 25% | Activity (Erigeron canadensis [11]): 99% | Activity (Erigeron canadensis [12]): 100% | Activity (Gossypium hirsutum): Non-toxic

CN(C)C(=O)Nc1cccc(C(F)(F)F)c1 [FLUOMETURON]
Activity (Erigeron canadensis [13]): 80% | Activity (Erigeron canadensis [14]): 99% | Activity (Erigeron canadensis [15]): 98% | Activity (Gossypium hirsutum): Non-toxic

CCOc1cc(Oc2ccc(C(F)(F)F)cc2Cl)ccc1[N+](=O)[O-] [OXYFLUORFEN]
Activity (Erigeron canadensis [16]): 100% | Activity (Gossypium hirsutum): Non-toxic | Activity (Erigeron canadensis [17]): 95% | Activity (Erigeron canadensis [18]): 99%

CSc1nc(NC(C)C)nc(NC(C)C)n1 [PROMETRYN]
Activity (Erigeron canadensis [10]): 20% | Activity (Erigeron canadensis [11]): 98% | Activity (Erigeron canadensis [12]): 100% | Activity (Gossypium hirsutum): Non-toxic

C#CCN1C(=O)COc2cc(F)c(N3C(=O)C4=C(CCCC4)C3=O)cc21 [FLUMIOXAZIN]
Activity (Erigeron canadensis [19]): 35% | Activity (Erigeron canadensis [20]): 99% | Activity (Erigeron canadensis [21]): 100% | Activity (Gossypium hirsutum): Non-toxic
